# Test results taken from patent US20190381017A1, “Compositions Comprising Serdexmethylphenidate Conjugates And Methods Of Use Thereof” (KemPharm, Inc., priority 2018, published 2019).
# Assays:
# [1] = test system: healthy, nondependent, recreational stimulant users with intranasal insufflation experience; assay: Treatment-emergent adverse events, intranasal study (Example 5, Table 54)
# Procedure: The study consisted of a Screening Period, an in-clinic Drug Discrimination Phase, a Treatment Phase, and a Follow-Up Visit.
# All subjects were required to fast for at least 8 hours prior to each dose of study drug until approximately 4 hours after each dose. Abuse potential measures and pharmacokinetic samples were collected at different times after the administration of study drug. Subjects who successfully completed the Drug Discrimination Phase and who qualified for the Treatment Phase remained as inpatients to enter the Treatment Phase.
# [2] = test system: healthy, nondependent, recreational stimulant users with intranasal insufflation experience; assay: Intranasal abuse potential, VAS pharmacodynamic scores (Example 5); assay type: in vivo, human; details: SDX Cl 80 mg
# Procedure: Subjects who successfully completed the Screening Period returned to the clinic to complete the Drug Discrimination Phase. The Drug Discrimination Test was performed to ensure that subjects can differentiate between the effects of a single dose of d-methylphenidate hydrochloride and placebo, administered intranasally. Subjects who successfully completed the Drug Discrimination Phase remained as inpatients to enter the Treatment Phase. The Drug Discrimination Phase was a double-blind, intranasal, single-dose, 2-treatment, 2-period, 2-sequence, randomized, crossover design.
# The placebo dose consisted of 80 mg of microcrystalline cellulose to create the same volume.
# On dosing days in the Treatment Phase, blood samples were collected for the measurement of the plasma concentrations of SDX, d-methylphenidate (d-MPH), l-methylphenidate (l-MPH) and ritalinic acid at predose and at 0.25, 0.5, 0.75, 1, 1.5, 2, 3, 4, 5, 6, 7, 8, 9, 10, 12, 16, 24, 36, and 48 hours±5 minutes after each dose of study drug. […] All VAS pharmacodynamic assessments except Take Drug Again and Overall Drug Liking were performed at 0.25, 0.5, 0.75, 1, 1.5, 2, 3, 4, 5, 6, 7, 8, 10, 12, 24 hours±5 minutes postdose. In addition, predose assessments of Feeling High, and Drowsiness/Alertness were collected. The Take Drug Again and Overall Drug Liking VAS assessments were performed at 12 and 24 hours±5 minutes postdose.
# [3] = test system: healthy, nondependent, recreational stimulant users; assay: Oral abuse potential, VAS pharmacodynamic scores (Example 4); details: for Drug Liking Emax (mean) / Drug Liking Emax (median) / Feeling Alert/Drowsy Emax (mean) / Feeling Alert/Drowsy Emax (median) / Overall Drug Liking Emax (mean) / Overall Drug Liking Emax (median) / Take Drug Again Emax (mean) / Take Drug Again Emax (median): bipolar VAS; for Any Effects Emax (mean) / Any Effects Emax (median) / Bad Effects Emax (mean) / Bad Effects Emax (median) / Feeling High Emax (mean) / Feeling High Emax (median) / Good Effects Emax (mean) / Good Effects Emax (median): unipolar VAS
# [4] = d-MPH HCl 40 mg (N = 46), SDX Cl 80 mg (N = 46)
# [5] = d-MPH HCl 40 mg, 12 hours, bipolar VAS
# [6] = d-MPH HCl 40 mg, 24 hours, bipolar VAS
# [7] = SDX Cl 120 mg, Focalin XR 80 mg, phentermine HCl 60 mg
smiles,measurement,setting,value
COC(=O)[C@H](c1ccccc1)[C@H]1CCCCN1C(=O)OC[n+]1cccc(C(=O)N[C@@H](CO)C(=O)O)c1.[Cl-] [serdexmethylphenidate chloride],"nasal discomfort, nasal congestion, rhinorrhoea, epistaxis, increased lacrimation, frequency vs intranasal d-MPH HCl",[1]; SDX Cl 80 mg vs d-MPH HCl 40 mg,occurred more often
same,TEAE: Back pain,[1]; [4],0 n (%) [E]
same,TEAE: Blood pressure diastolic increased,[1]; [4],0 n (%) [E]
same,TEAE: Bruxism,[1]; [4],0 n (%) [E]
same,TEAE: Change in sustained attention,[1]; [4],0 n (%) [E]
same,TEAE: Chest discomfort,[1]; [4],0 n (%) [E]
same,TEAE: Decreased appetite,[1]; [4],0 n (%) [E]
same,TEAE: Defaecation urgency,[1]; [4],0 n (%) [E]
same,TEAE: Dry mouth,[1]; [4],0 n (%) [E]
same,TEAE: Dry throat,[1]; [4],0 n (%) [E]
same,TEAE: Dysmenorrhoea (menstrual cramps),[1]; [4],0 n (%) [E]
same,TEAE: Dyspepsia,[1]; [4],0 n (%) [E]
same,TEAE: Energy increased,[1]; [4],0 n (%) [E]
same,TEAE: Eye irritation,[1]; [4],0 n (%) [E]
same,TEAE: Feeling hot,[1]; [4],0 n (%) [E]
same,TEAE: Flushing,[1]; [4],0 n (%) [E]
same,TEAE: Haematoma,[1]; [4],0 n (%) [E]
same,TEAE: Hypopnoea (shallow breathing),[1]; [4],0 n (%) [E]
same,TEAE: Infections and infestations,[1]; [4],0 n (%) [E]
same,TEAE: Investigations,[1]; [4],0 n (%) [E]
same,TEAE: Metabolism and nutrition disorders,[1]; [4],0 n (%) [E]
same,TEAE: Muscle tightness,[1]; [4],0 n (%) [E]
same,TEAE: Muscle twitching,[1]; [4],0 n (%) [E]
same,TEAE: Neck pain,[1]; [4],0 n (%) [E]
same,TEAE: Obsessive-compulsive disorder,[1]; [4],0 n (%) [E]
same,TEAE: Peripheral swelling,[1]; [4],0 n (%) [E]
same,TEAE: Pharyngeal hypoaesthesia (numbness of throat),[1]; [4],0 n (%) [E]
same,TEAE: Pharyngitis,[1]; [4],0 n (%) [E]
same,TEAE: Phlebitis superficial,[1]; [4],0 n (%) [E]
same,TEAE: Phonophobia (fear of loud noises),[1]; [4],0 n (%) [E]
same,TEAE: Photophobia,[1]; [4],0 n (%) [E]
same,TEAE: Pyrexia,[1]; [4],0 n (%) [E]
same,TEAE: Reproductive system and breast disorders,[1]; [4],0 n (%) [E]
same,TEAE: Restlessness,[1]; [4],0 n (%) [E]
same,TEAE: Sinus tachycardia,[1]; [4],0 n (%) [E]
same,TEAE: Tachycardia,[1]; [4],0 n (%) [E]
same,TEAE: Testis discomfort,[1]; [4],0 n (%) [E]
same,TEAE: Vascular disorders,[1]; [4],0 n (%) [E]
same,TEAE: Ventricular extrasystoles,[1]; [4],0 n (%) [E]
same,TEAE: Vessel puncture site bruise,[1]; [4],0 n (%) [E]
same,TEAE: Vessel puncture site pain,[1]; [4],0 n (%) [E]
same,TEAE: Visual impairment,[1]; [4],0 n (%) [E]
same,TEAE: Vomiting,[1]; [4],0 n (%) [E]
same,Mean difference Drug Liking Emax vs placebo,[2],19.9
same,"Mean difference Overall Drug Liking vs placebo, 12 hours",[2],10.3
same,"Mean difference Overall Drug Liking vs placebo, Emax",[2],11.5
same,Mean difference Any Effect Emax vs placebo,[2]; d-MPH HCl 40 mg,48.8
same,Mean difference Ease of Nasal Insufflation Emax vs placebo,[2]; d-MPH HCl 40 mg,59.0
same,Mean difference Feeling Drowsy/Alert Emax vs placebo,[2]; d-MPH HCl 40 mg,20.1
same,Mean difference Feeling High Emax vs placebo,[2]; d-MPH HCl 40 mg,40.7
same,Mean difference Good Effects Emax vs placebo,[2]; d-MPH HCl 40 mg,44.2
same,"Mean difference Overall Drug Liking vs placebo, 24 hours",[2]; d-MPH HCl 40 mg,8.8
same,"Mean difference Take Drug Again vs placebo, 12 hours",[2]; d-MPH HCl 40 mg,7.6
same,"Mean difference Take Drug Again vs placebo, 24 hours",[2]; d-MPH HCl 40 mg,6.7
same,"Mean difference Take Drug Again vs placebo, Emax",[2]; d-MPH HCl 40 mg,10.8
same,Median difference Bad Effects Emax vs placebo,[2]; d-MPH HCl 40 mg,9.5
same,Mean Overall Drug Liking,[2]; [5],60.4
same,Mean Take Drug Again,[2]; [5],56.7
same,Median Overall Drug Liking,[2]; [5],58
same,Median Take Drug Again,[2]; [5],51
same,Mean Overall Drug Liking,[2]; [6],59.0
same,Mean Take Drug Again,[2]; [6],55.8
same,Median Overall Drug Liking,[2]; [6],55
same,Median Take Drug Again,[2]; [6],50
same,Drug Liking Emax (mean),"[2]; d-MPH HCl 40 mg, bipolar VAS",71.0
same,Drug Liking Emax (median),"[2]; d-MPH HCl 40 mg, bipolar VAS",71
same,Feeling Drowsy/Alert Emax (mean),"[2]; d-MPH HCl 40 mg, bipolar VAS",71.2
same,Feeling Drowsy/Alert Emax (median),"[2]; d-MPH HCl 40 mg, bipolar VAS",71
same,Overall Drug Liking Emax (mean),"[2]; d-MPH HCl 40 mg, bipolar VAS",61.8
same,Overall Drug Liking Emax (median),"[2]; d-MPH HCl 40 mg, bipolar VAS",58
same,Take Drug Again Emax (mean),"[2]; d-MPH HCl 40 mg, bipolar VAS",60.0
same,Take Drug Again Emax (median),"[2]; d-MPH HCl 40 mg, bipolar VAS",56
same,Drug Liking Emax (mean),"[2]; d-MPH HCl 40 mg, bipolar VAS, listed as SDX chloride",71
same,Any Effect Emax (mean),"[2]; d-MPH HCl 40 mg, unipolar VAS",49.4
same,Any Effect Emax (median),"[2]; d-MPH HCl 40 mg, unipolar VAS",47
same,Bad Effects Emax (mean),"[2]; d-MPH HCl 40 mg, unipolar VAS",14.9
same,Bad Effects Emax (median),"[2]; d-MPH HCl 40 mg, unipolar VAS",1
same,Ease of Nasal Insufflation (mean),"[2]; d-MPH HCl 40 mg, unipolar VAS",65.8
same,Ease of Nasal Insufflation (median),"[2]; d-MPH HCl 40 mg, unipolar VAS",71
same,Feeling High Emax (mean),"[2]; d-MPH HCl 40 mg, unipolar VAS",43.4
same,Feeling High Emax (median),"[2]; d-MPH HCl 40 mg, unipolar VAS",36
same,Good Effects Emax (mean),"[2]; d-MPH HCl 40 mg, unipolar VAS",44.9
same,Good Effects Emax (median),"[2]; d-MPH HCl 40 mg, unipolar VAS",42
same,Mean difference Bad Effects Emax vs placebo,"[3]; SDX Cl 120 mg, Focalin XR 80 mg",1.3
same,Mean difference Any Effects Emax vs placebo,[3]; [7],11.0
same,Mean difference Drug Liking Emax vs placebo,[3]; [7],6.8
same,Mean difference Feeling Alert/Drowsy Emax vs placebo,[3]; [7],7.7
same,Mean difference Feeling High Emax vs placebo,[3]; [7],10.4
same,Mean difference Good Effects Emax vs placebo,[3]; [7],12.1
same,Mean difference Overall Drug Liking Emax vs placebo,[3]; [7],3.8
same,Mean difference Take Drug Again Emax vs placebo,[3]; [7],2.2
same,Drug Liking Emax (mean),[3]; [7],62.8
same,Drug Liking Emax (median),[3]; [7],53.0
same,Feeling Alert/Drowsy Emax (mean),[3]; [7],64.4
same,Feeling Alert/Drowsy Emax (median),[3]; [7],54.0
same,Overall Drug Liking Emax (mean),[3]; [7],58.5
same,Overall Drug Liking Emax (median),[3]; [7],50.0
same,Take Drug Again Emax (mean),[3]; [7],57.4
same,Take Drug Again Emax (median),[3]; [7],50.0
same,Any Effects Emax (mean),[3]; [7],28.8
same,Any Effects Emax (median),[3]; [7],14.0
same,Bad Effects Emax (mean),[3]; [7],6.04
same,Bad Effects Emax (median),[3]; [7],0.0
same,Feeling High Emax (mean),[3]; [7],25.6
same,Feeling High Emax (median),[3]; [7],7.0
same,Good Effects Emax (mean),[3]; [7],27.0
same,Good Effects Emax (median),[3]; [7],10.0
same,Mean difference Any Effects Emax vs placebo,[3]; SDX Cl 240 mg,20.5
same,Mean difference Bad Effects Emax vs placebo,[3]; SDX Cl 240 mg,8.6
same,Mean difference Drug Liking Emax vs placebo,[3]; SDX Cl 240 mg,8.3
same,Mean difference Feeling Alert/Drowsy Emax vs placebo,[3]; SDX Cl 240 mg,11.2
same,Mean difference Feeling High Emax vs placebo,[3]; SDX Cl 240 mg,18.8
same,Mean difference Good Effects Emax vs placebo,[3]; SDX Cl 240 mg,17.4
same,Mean difference Overall Drug Liking Emax vs placebo,[3]; SDX Cl 240 mg,3.3
same,Mean difference Take Drug Again Emax vs placebo,[3]; SDX Cl 240 mg,1.7
same,Drug Liking Emax (mean),[3]; SDX Cl 240 mg,63.8
same,Drug Liking Emax (median),[3]; SDX Cl 240 mg,59.0
same,Feeling Alert/Drowsy Emax (mean),[3]; SDX Cl 240 mg,67.4
same,Feeling Alert/Drowsy Emax (median),[3]; SDX Cl 240 mg,64.0
same,Overall Drug Liking Emax (mean),[3]; SDX Cl 240 mg,58.0
same,Overall Drug Liking Emax (median),[3]; SDX Cl 240 mg,51.0
same,Take Drug Again Emax (mean),[3]; SDX Cl 240 mg,56.9
same,Take Drug Again Emax (median),[3]; SDX Cl 240 mg,50.0
same,Any Effects Emax (mean),[3]; SDX Cl 240 mg,37.0
same,Any Effects Emax (median),[3]; SDX Cl 240 mg,23.0
same,Bad Effects Emax (mean),[3]; SDX Cl 240 mg,13.4
same,Bad Effects Emax (median),[3]; SDX Cl 240 mg,0.0
same,Feeling High Emax (mean),[3]; SDX Cl 240 mg,32.1
same,Feeling High Emax (median),[3]; SDX Cl 240 mg,19.0
same,Good Effects Emax (mean),[3]; SDX Cl 240 mg,30.8
same,Good Effects Emax (median),[3]; SDX Cl 240 mg,15.0
